What follows are compounds tested against T1, full-length human PKCι (Homo sapiens, UniProt P41743) (assay: PKCι IC50 IMAP assay, full-length PKCι at 150 μM ATP). Conditions: read-out: IC50 in IMAP assay against full length PKCi at 150 μM ATP.
T1 construct: Recombinant, full-length human PKCι expressed in Sf21 insect cells is also commercially available; purchased; host or cells: Sf21 insect cells
T1 sequence (P41743 1-596): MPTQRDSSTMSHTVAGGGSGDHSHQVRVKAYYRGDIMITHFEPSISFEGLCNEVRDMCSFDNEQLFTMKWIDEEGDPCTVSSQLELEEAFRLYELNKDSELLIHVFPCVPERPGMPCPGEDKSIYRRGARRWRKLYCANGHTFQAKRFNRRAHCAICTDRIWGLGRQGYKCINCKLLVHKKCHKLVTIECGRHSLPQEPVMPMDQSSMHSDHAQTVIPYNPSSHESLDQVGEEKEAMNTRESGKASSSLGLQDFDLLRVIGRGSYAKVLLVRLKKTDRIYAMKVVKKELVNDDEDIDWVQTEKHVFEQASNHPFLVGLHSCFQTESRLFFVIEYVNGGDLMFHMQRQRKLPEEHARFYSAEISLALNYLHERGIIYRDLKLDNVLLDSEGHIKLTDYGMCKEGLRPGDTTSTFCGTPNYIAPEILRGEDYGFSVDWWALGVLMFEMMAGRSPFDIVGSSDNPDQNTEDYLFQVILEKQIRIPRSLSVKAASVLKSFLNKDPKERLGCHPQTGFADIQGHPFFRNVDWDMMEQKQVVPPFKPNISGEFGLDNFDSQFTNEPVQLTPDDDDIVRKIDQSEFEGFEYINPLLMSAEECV
Type: biochemical
Procedure, shortened: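 Full-length hPKCι (Sf21) ~15 pM; 5FAM-peptide 100 nM; ATP 150 μM (5× KM^APP); tris pH7.5/MgCl2/EGTA/DTT/Triton, 4% DMSO; 60 min RT; IMAP stop, 2 h; FP 485/530 nm; IC50 from % inhibition curves.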

IC50 [nM]	SMILES
< 100	CCn1cc(Cl)c(Nc2cc(-c3nc(N4CCNC(C)(C)C4)c4c(C5CC5)cncc4n3)ccn2)n1 [Example 2043, (4-Chloro-1-ethyl-1H-pyrazol-3-yl)-{4-[5-cyclopropyl-4-(3,3-dimethyl-piperazin-1-yl)-pyrido[3,4-d]pyrimidin-2-yl]-pyridin-2-yl}-amine]
< 100	c1ccc2oc(Nc3cc(-c4nc(N5CCNCC5)c5c(C6CC6)cncc5n4)ccn3)nc2c1 [Example 2044, Benzooxazol-2-yl-[4-(5-cyclopropyl-4-piperazin-1-yl-pyrido[3,4-d]pyrimidin-2-yl)-pyridin-2-yl]-amine]
< 100	c1ccc2sc(Nc3cc(-c4nc(N5CCNCC5)c5c(C6CC6)cncc5n4)ccn3)nc2c1 [Example 2045, Benzothiazol-2-yl-[4-(5-cyclopropyl-4-piperazin-1-yl-pyrido[3,4-d]pyrimidin-2-yl)-pyridin-2-yl]-amine]
< 100	Cn1c(Nc2cc(-c3nc(N4CCNCC4)c4c(C5CC5)cncc4n3)ccn2)nc2ccccc21 [Example 2046, [4-(5-Cyclopropyl-4-piperazin-1-yl-pyrido[3,4-d]pyrimidin-2-yl)-pyridin-2-yl]-(1-methyl-1H-benzoimidazol-2-yl)-amine]
< 100	Fc1cc(C2CC2)c(F)nc1Nc1cc(-c2nc(N3CCNCC3)c3c(C4CC4)cncc3n2)ccn1 [Example 2047, (5-Cyclopropyl-3,6-difluoro-pyridin-2-yl)-[4-(5-cyclopropyl-4-piperazin-1-yl-pyrido[3,4-d]pyrimidin-2-yl)-pyridin-2-yl]-amine]
< 100	Fc1ccc(C2(c3cc4c(-c5nc(N6CCNCC6)c6c(C7CC7)cncc6n5)ccnc4[nH]3)CC2)cc1 [Example 2048, 5-Cyclopropyl-2-{2-[1-(4-fluoro-phenyl)-cyclopropyl]-1H-pyrrolo[2,3-b]pyridin-4-yl}-4-piperazin-1-yl-pyrido[3,4-d]pyrimidine]
< 100	C[C@H]1CN(c2nc(-c3ccnc(NC4CCN(CC(F)(F)F)CC4)c3)nc3cncc(C4CC4)c23)CCN1 [Example 2049, {4-[5-Cyclopropyl-4-((S)-3-methyl-piperazin-1-yl)-pyrido[3,4-d]pyrimidin-2-yl]-pyridin-2-yl}-[1-(2,2,2-trifluoro-ethyl)-piperidin-4-yl]-amine]
< 100	c1ccc2cc(Nc3cc(-c4nc(N5CCNCC5)c5c(C6CC6)cncc5n4)ccn3)ccc2c1 [Example 2050, [4-(5-Cyclopropyl-4-piperazin-1-yl-pyrido[3,4-d]pyrimidin-2-yl)-pyridin-2-yl]-naphthalen-2-yl-amine]
< 100	c1ccc(-c2cccc(Nc3cc(-c4nc(N5CCNCC5)c5c(C6CC6)cncc5n4)ccn3)c2)cc1 [Example 2051, Biphenyl-3-yl-[4-(5-cyclopropyl-4-piperazin-1-yl-pyrido[3,4-d]pyrimidin-2-yl)-pyridin-2-yl]-amine]
< 100	CN1CCN(c2cccc(Nc3cc(-c4nc(N5CCN[C@@H](C(F)(F)F)C5)c5c(C6CC6)cncc5n4)ccn3)c2)CC1 [Example 2052, {4-[5-Cyclopropyl-4-((R)-3-trifluoromethyl-piperazin-1-yl)-pyrido[3,4-d]pyrimidin-2-yl]-pyridin-2-yl}-[3-(4-methyl-piperazin-1-yl)-phenyl]-amine]
< 100	Cn1ccc(Nc2cc(-c3nc(N4CCN[C@@H](C(F)(F)F)C4)c4c(C5CC5)cncc4n3)ccn2)n1 [Example 2053, {4-[5-Cyclopropyl-4-((R)-3-trifluoromethyl-piperazin-1-yl)-pyrido[3,4-d]pyrimidin-2-yl]-pyridin-2-yl}-(1-methyl-1H-pyrazol-3-yl)-amine]
< 100	Fc1cc(F)c(F)c(Nc2cc(-c3nc(N[C@@H]4CCNC4)c4c(C5CC5)cncc4n3)ccn2)n1 [Example 2054, {5-Cyclopropyl-2-[2-(3,4,6-trifluoro-pyridin-2-ylamino)-pyridin-4-yl]-pyrido[3,4-d]pyrimidin-4-yl}-(R)-pyrrolidin-3-yl-amine]
< 100	Cn1nccc1-c1ccc(Nc2cc(-c3nc(N4CCNCC4)c4c(C5CC5)cncc4n3)ccn2)c(F)c1 [Example 2055, [4-(5-Cyclopropyl-4-piperazin-1-yl-pyrido[3,4-d]pyrimidin-2-yl)-pyridin-2-yl]-[2-fluoro-4-(2-methyl-2H-pyrazol-3-yl)-phenyl]-amine]
< 100	Fc1cc(F)c(Nc2cc(-c3nc(N[C@@H]4CCNC4)c4c(C5CC5)cncc4n3)ccn2)nc1F [Example 2056, {5-Cyclopropyl-2-[2-(3,5,6-tritluoro-pyridin-2-ylamino)-pyridin-4-yl]-pyrido[3,4-d]pyrimidin-4-yl}-(R)-pyrrolidin-3-yl-amine]
< 100	CN(c1nc(-c2ccnc(Nc3c(F)cccc3F)c2)nc2cncc(C3CC3)c12)[C@@H]1CCNC1 [Example 2057, {5-Cyclopropyl-2-[2-(2,6-difluoro-phenylamino)-pyridin-4-yl]-pyrido[3,4-d]pyrimidin-4-yl}-methyl-(R)-pyrrolidin-3-yl-amine]
< 100	Fc1cccc(F)c1Nc1cc(-c2nc(NC3CCCNCC3)c3c(C4CC4)cncc3n2)ccn1 (stereo not shown) [Example 2058, Azepan-4-yl-{5-cyclopropyl-2-[2-(2,6-difluoro-phenylamino)-pyridin-4-yl]-pyrido[3,4-d]pyrimidin-4-yl}-amine]
< 100	c1ccc2c(Nc3cc(-c4nc(N5CCNCC5)c5c(C6CC6)cncc5n4)ccn3)cccc2c1 [Example 2059, [4-(5-Cyclopropyl-4-piperazin-1-yl-pyrido[3,4-d]pyrimidin-2-yl)-pyridin-2-yl]-naphthalen-1-yl-amine]
< 100	c1ccc2cc(Nc3cc(-c4nc(N5CCNCC5)c5c(C6CC6)cncc5n4)ccn3)ncc2c1 [Example 2060, [4-(5-Cyclopropyl-4-piperazin-1-yl-pyrido[3,4-d]pyrimidin-2-yl)-pyridin-2-yl]-iso[D4],[D3]uinolin-3-yl-amine]
< 100	Cn1nc(Nc2cc(-c3nc(N4CCNCC4)c4c(C5CC5)cncc4n3)ccn2)c2ccccc21 [Example 2061, [4-(5-Cyclopropyl-4-piperazin-1-yl-pyrido[3,4-d]pyrimidin-2-yl)-pyridin-2-yl]-(1-methyl-1H-indazol-3-yl)-amine]
< 100	Fc1cc(F)c(F)c(Nc2cc(-c3nc(NC4CCNCC4)c4c(C5CC5)cncc4n3)ccn2)n1 [Example 2062, {5-Cyclopropyl-2-[2-(3,4,6-trifluoro-pyridin-2-ylamino)-pyridin-4-yl]-pyrido[3,4-d]pyrimidin-4-yl}-piperidin-4-yl-amine]
< 100	CC(C)(c1cc2c(-c3nc(N4CCNCC4)c4c(C5CC5)cncc4n3)ccnc2[nH]1)C(F)(F)F [Example 2063, 5-Cyclopropyl-4-piperazin-1-yl-2-[2-(2,2,2-trifluoro-1,1-dimethyl-ethyl)-1H-pyrrolo[2,3-b]pyridin-4-yl]-pyrido[3,4-d]pyrimidine]
< 100	c1ccc(C2(c3cc4c(-c5nc(N6CCNCC6)c6c(C7CC7)cncc6n5)ccnc4[nH]3)CCC2)cc1 [Example 2064, 5-Cyclopropyl-2-[2-(1-phenyl-cyclobutyl)-1H-pyrrolo[2,3-b]pyridin-4-yl]-4-piperazin-1-yl-pyrido[3,4-d]pyrimidine]
< 100	Fc1cc(F)c(Nc2cc(-c3nc(NC4CCNCC4)c4c(C5CC5)cncc4n3)ccn2)nc1F [Example 2065, {5-Cyclopropyl-2-[2-(3,5,6-trifluoro-pyridin-2-ylamino)-pyridin-4-yl]-pyrido[3,4-d]pyrimidin-4-yl}-piperidin-4-yl-amine]
< 100	CC(Nc1cc(-c2nc(N3CCNCC3)c3c(C4CC4)cncc3n2)ccn1)C1CCCO1 (stereo not shown) [Example 2066, [4-(5-Cyclopropyl-4-piperazin-1-yl-pyrido[3,4-d]pyrimidin-2-yl)-pyridin-2-yl]-[1-(tetrahydro-furan-2-yl)-ethyl]-amine]
< 100	C[C@@H](Nc1cc(-c2nc(N3CCNCC3)c3c(C4CC4)cncc3n2)ccn1)c1ccccc1F [Example 2067, [4-(5-Cyclopropyl-4-piperazin-1-yl-pyrido[3,4-d]pyrimidin-2-yl)-pyridin-2-yl]-[(R)-1-(2-fluoro-phenyl)-ethyl]-amine]
< 100	FC(F)(F)c1cc2c(-c3nc(NC4CCNCC4)c4c(C5CC5)cncc4n3)ccnc2[nH]1 [Example 2068, [5-Cyclopropyl-2-(2-trifluoromethyl-1H-pyrrolo[2,3-b]pyridin-4-yl)-pyrido[3,4-d]pyrimidin-4-yl]-piperidin-4-yl-amine]
< 100	FC(F)(F)c1cc2c(-c3nc(N4CCNCC4)c4c(C5CC5)cnc(Cl)c4n3)ccnc2[nH]1 [Example 2071, 8-Chloro-5-cyclopropyl-4-piperazin-1-yl-2-(2-trifluoromethyl-1H-pyrrolo[2,3-b]pyridin-4-yl)-pyrido[3,4-d]pyrimidine]

SMILES	IC50 [nM]
CN(c1nc(-c2ccnc3[nH]c(C(F)(F)F)cc23)nc2cncc(C3CC3)c12)C1CCNCC1 [Example 2070, [5-Cyclopropyl-2-(2-trifluoromethyl-1H-pyrrolo[2,3-b]pyridin-4-yl)-pyrido[3,4-d]pyrimidin-4-yl]-methyl-piperidin-4-yl-amine]	< 100

Reference: US9914730B2, “Azaquinazoline inhibitors of Atypical protein Kinase C” (Ignyta, Inc., priority 2012, dated 2018)
